Measured values as given in patent EP4778931A1, “ULK1 INHIBITOR, PREPARATION METHOD THEREFOR AND USE THEREOF” (Dovetree Medicines Unus, Inc., priority 2023, dated 2025).

Molecular target: T1, ULK1 (Homo sapiens, UniProt O75385)
T1 construct: purchased Promega V3521
T1 sequence (O75385 1-1050): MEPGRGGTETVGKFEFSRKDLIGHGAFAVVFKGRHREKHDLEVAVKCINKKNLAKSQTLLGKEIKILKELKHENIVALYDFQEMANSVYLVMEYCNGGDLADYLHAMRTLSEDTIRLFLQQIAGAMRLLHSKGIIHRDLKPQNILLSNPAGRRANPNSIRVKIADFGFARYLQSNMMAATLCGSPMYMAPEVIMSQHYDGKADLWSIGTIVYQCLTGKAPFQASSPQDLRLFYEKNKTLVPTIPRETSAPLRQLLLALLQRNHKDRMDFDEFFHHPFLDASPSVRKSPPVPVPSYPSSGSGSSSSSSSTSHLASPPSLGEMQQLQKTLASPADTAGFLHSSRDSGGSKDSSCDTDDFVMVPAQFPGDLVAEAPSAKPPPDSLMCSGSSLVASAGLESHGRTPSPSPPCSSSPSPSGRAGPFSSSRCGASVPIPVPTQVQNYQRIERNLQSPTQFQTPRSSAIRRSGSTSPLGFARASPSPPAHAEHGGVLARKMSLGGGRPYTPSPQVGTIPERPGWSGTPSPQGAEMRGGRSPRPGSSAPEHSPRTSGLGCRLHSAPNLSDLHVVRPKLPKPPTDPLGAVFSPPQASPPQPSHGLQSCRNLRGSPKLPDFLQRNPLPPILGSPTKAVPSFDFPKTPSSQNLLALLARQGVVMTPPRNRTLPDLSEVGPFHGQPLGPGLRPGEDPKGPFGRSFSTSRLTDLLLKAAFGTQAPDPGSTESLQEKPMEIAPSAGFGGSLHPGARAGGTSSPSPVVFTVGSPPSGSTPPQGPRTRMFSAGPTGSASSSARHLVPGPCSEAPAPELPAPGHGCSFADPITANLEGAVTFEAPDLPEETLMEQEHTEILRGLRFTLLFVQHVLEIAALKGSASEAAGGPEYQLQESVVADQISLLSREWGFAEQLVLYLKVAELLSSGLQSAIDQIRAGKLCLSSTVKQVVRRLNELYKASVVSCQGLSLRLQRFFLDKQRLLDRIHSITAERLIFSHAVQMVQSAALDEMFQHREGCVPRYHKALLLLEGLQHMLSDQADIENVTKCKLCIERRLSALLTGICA
Assay: Inhibition of ULK1 protein activity (phosphorylation function), ADP-Glo method
Format: biochemical
Conditions: ADP-Glo; ULK1 (Promega), ATP and MBP substrate, 60 min at room temperature; 10 concentrations, maximum 10 µM; read-out: ULK1 IC50
Method: In this experiment, the inhibitory effect of a compound on the phosphorylation function of ULK1 was detected by ADP-Glo method. The inhibitory effect of the compound of the present disclosure on the ULK1 target was evaluated based on IC50.
Compound formulation: Using an ECHO (Beckman, ECHO650), the compound was serially diluted 3-fold in DMSO in a 384-well plate (PE, 6007290). A total of 10 concentration points were set, with the maximum concentration of the compound being 10 µM, and 50 nL per well. Positive control wells and negative control wells were added with 50 nL DMSO, respectively.
Reaction process: A 32 nM of ULK1 (Promega, V3521) solution was formulated, and 2.5 µL/well was transferred to the compound test wells and the negative control wells (NC). 2.5 µL/well of 1× Assay buffer was added to the positive control wells (PC). A mixed solution of 100 µM of ATP and 1.86 µM of MBP was formulated, and 2.5 µL/well was transferred to the reaction plate. After centrifugation, the reaction was initiated and incubated at room temperature for 60 min. After the reaction was completed, 5 µL/well of ADP-Glo Reagent (Promega, V9102) was added to the reaction plate. After centrifugation, the reaction was incubated at room temperature for 40 minutes. Finally, 10 µL/well of Kinase Detection Buffer was added, followed by centrifugation and incubation at room temperature for 30 min. The chemiluminescence value was read using Envision (PE, Envision2105).
Assay buffer: a reaction buffer; and Kinase Detection buffer: a detection buffer, both were taken from the ADP-Glodetection kit, purchased from Promega, model V9102.
The inhibition ratio of a compound on ULK1 activity was calculated using the following formula: [formula]
The dose-effect curve was fitted using the log(inhibitor) vs. response -Variable slope of the analysis software GraphPad Prism 8, thereby affording the IC50 value of each compound for enzyme activity.

| IC50 [nM] | SMILES |
| --- | --- |
| < 100 | CN1CCN2c3ccc(Nc4ncc(C(F)(F)F)c(O[C@H]5CC[C@@H](n6cccn6)CC5)n4)cc3COCC2C1 (some centres unmarked) [Compound 7] |
| < 100 | CN1CCN2c3ccc(Nc4ncc(C(F)(F)F)c(OCCCn5nccc5Cl)n4)cc3COCC2C1 (centres unmarked) [Compound 10] |
| 100 to 1000 | CN1CCC2(CC1)CCN(c1nc(Nc3ccc4c(c3)COCC3CN(C)CCN43)ncc1C(F)(F)F)CC2 (centres unmarked) [Compound 13] |
| < 100 | CN1CCN2c3ccc(Nc4ncc(C(F)(F)F)c(OCCCN5CCCCC5=O)n4)cc3N(C)C(=O)C2C1 (centres unmarked) [Compound 14] |
| < 100 | CN1CCN2c3ccc(Nc4ncc(C(F)(F)F)c(OCCCN5CCCCC5=O)n4)cc3OCCC2C1 (centres unmarked) [Compound 15] |
| < 100 | CN1CCN2c3ccc(Nc4ncc(C(F)(F)F)c(OCCCN5CCCOC5=O)n4)cc3COCC2C1 (centres unmarked) [Compound 16] |
| < 100 | CC(=O)N1CCN2c3ccc(Nc4ncc(C(F)(F)F)c(N5CCC6(CCN(C)C6)C5)n4)cc3COCC2C1 (centres unmarked) [Compound 18] |
| < 100 | CN1CCC2(CCN(c3nc(Nc4ccc5c(c4)COCC4CN(C6COC6)CCN54)ncc3C(F)(F)F)C2)C1 (centres unmarked) [Compound 19] |
